Measurements as given in patent US20250163119A1, “COMPOUNDS FOR THE TREATMENT OF DIABETES OR OBESITY” (Eli Lilly and Company, priority 2023, published 2025).
Values joined by “and” are separate entries in the source; they are usually repeats but may differ in a detail not shown here. Equal values may be shown once. Read-outs that look alike come from different tables or passages of the source. *1 amine or outer side, *2 acyl side, *3 side chain or, on linkers, in order; H or OH if unused. Where a SMILES comes first, the peptide text is derived from it. Side-chain parts run from the residue outwards. [ ]: non-standard residue; d: D form. The star is where a group is joined. C20 diacid = O=C(O)CCCCCCCCCCCCCCCCCCC(=O)*; γGlu = O=C(O)[C@H](CCC(=O)[*:2])N[*:1]; NMeI = CC[C@H](C)[C@H](NC)C(=O)O; αMeL = CC(C)C[C@](C)(N)C(=O)O; AEEA = NCCOCCOCC(=O)O; Aib = CC(C)(N)C(=O)O

Legend:
[1] = tested on: MHC-II presented peptides on human dendritic cells; test: MAPPS assay (MHC-Associated Peptide Proteomics); assay type: cell-based; conditions: for peptides displayed on MHC-II complexes: human dendritic cells from normal donors; for immunogenicity compared with SEQ ID NO:54: in the MAPPs assay and/or the T cell proliferation assay
Procedure: MAPPS profiles the MHC-II presented peptides on human dendritic cells treated with tested molecules. CD14+ cells, isolated from the PBMCs of normal human donors, were cultured and differentiated into immature DCs by incubation with IL-4 and GM-CSF. On day 4, culture media was replaced with fresh media containing tested molecules. On day 5, LPS was added to transform the cells into mature DCs. On day 6, cells were lysed in RIPA buffer with protease inhibitors. Immunoprecipitation of MHC-II complexes were performed using biotinylated anti-MHC-II antibody coupled to streptavidin beads. The bound complex was eluted and filtered. The isolated MHC-II peptides were analyzed by a mass spectrometer. Peptide identifications were generated by an internal proteomics pipeline using search algorithms with no enzyme and a bovine/human database with test sequences appended to the database. A KNIME workflow was used to process the identification files from the samples. Peptides identified from the test articles were aligned against the parent sequence of the test molecule. The output was used to determine the percentage of donors displaying MHC-II peptides from regions of the test molecule. Polypeptides comprising SEQ ID NOs:54, 49, 50, 29, 41, 45, 1, 22, 25 were tested in the MAPPs assay. […] Depending on the donors, up to three major clusters were observed, each slightly shifted from the others, altogether spanning residues 1-33.

[2] = Pharmacokinetics in Sprague Dawley rats, single subcutaneous or intravenous dose (incl. 10, 30, 100 nmol/kg dose response); assay type: in vivo
[3] = donors displaying MHC-II peptides / donors tested
[4] = percentage of donors displaying MHC-II peptides
[5] = male, Sprague Dawley, rat, plasma, iv, 196 nmol/kg, single intravenous dose 196 nmol/kg, individual animal
[6] = male, Sprague Dawley, rat, plasma, iv, 196 nmol/kg, single intravenous dose 196 nmol/kg, mean
[7] = male, Sprague Dawley, rat, plasma, sc, 196 nmol/kg, single subcutaneous dose 196 nmol/kg, individual animal
[8] = male, Sprague Dawley, rat, plasma, sc, 196 nmol/kg, single subcutaneous dose 196 nmol/kg, individual animal, read-out: CL/F (converted)
[9] = male, Sprague Dawley, rat, plasma, sc, 196 nmol/kg, single subcutaneous dose 196 nmol/kg, mean
[10] = male, Sprague Dawley, rat, plasma, sc, 196 nmol/kg, single subcutaneous dose 196 nmol/kg, mean, read-out: CL/F (converted)
[11] = male, Sprague Dawley, rat, plasma, sc, 196 nmol/kg, single subcutaneous dose 196 nmol/kg, mean, read-out: Tmax
[12] = rat, plasma, sc, single subcutaneous dose 196 nmol/kg, male Sprague Dawley rats, mean, read-out: AUC0-inf
[13] = rat, plasma, sc, single subcutaneous dose 196 nmol/kg, male Sprague Dawley rats, mean, read-out: Cmax
[14] = rat, plasma, single intravenous dose 196 nmol/kg, male Sprague Dawley rats, mean, read-out: AUC0-inf
[15] = rat, plasma, single intravenous dose 196 nmol/kg, male Sprague Dawley rats, mean, read-out: C0
[16] = single intravenous dose 196 nmol/kg, male Sprague Dawley rats, individual animal
[17] = single subcutaneous dose 196 nmol/kg, male Sprague Dawley rats, individual animal

SMILES | MAPPS Assay >10 donors with diverse MHC [1, 3] | peptides displayed on MHC-II complexes [1] | immunogenicity compared with SEQ ID NO:54 [1] | MAPPS Assay >10 donors with diverse MHC [1, 4] | clearance [2, 5] | half-life [2, 5] | clearance [2, 6] | half-life [2, 6] | half-life [2, 7] | CL/F [2, 8] | half-life [2, 9] | CL/F [2, 10] | Tmax [2, 11] | AUC0-inf [2, 12] | Cmax [2, 13] | AUC0-inf [2, 14] | C0 [2, 15] | AUC0-inf [2, 16] | C0 [2, 16] | CL [2, 16] | also measured
CC[C@H](C)[C@H](NC(C)=O)C(=O)N[C@H](C(=O)N[C@H](C(=O)N[C@@H](CO)C(=O)N[C@@](C)(CC(C)C)C(=O)N[C@@H](CC(=O)O)C(=O)N[C@@H](C(=O)N1CCC[C@H]1C(=O)N[C@H](C(=O)NC(C)(C)C(=O)N[C@@](C)(CC(C)C)C(=O)N[C@@H](CC(C)C)C(=O)N[C@@H](CCC(N)=O)C(=O)N[C@H](C(=O)N[C@@H](CCCCN)C(=O)N[C@@H](CC(C)C)C(=O)N[C@@H](CCC(=O)O)C(=O)N[C@@H](CCC(N)=O)C(=O)N[C@@H](CCC(=O)O)C(=O)N[C@@H](CCCNC(=N)N)C(=O)N[C@@H](C)C(=O)N[C@@H](CCC(=O)O)C(=O)N[C@@H](CCCCN)C(=O)N[C@@H](C)C(=O)N[C@@H](CCCNC(=N)N)C(=O)N[C@@H](CCC(N)=O)C(=O)N[C@@H](CCC(N)=O)C(=O)N[C@@H](C)C(=O)N[C@@H](CCCCNC(=O)COCCOCCNC(=O)COCCOCCNC(=O)CC[C@H](NC(=O)CCCCCCCCCCCCCCCCCCC(=O)O)C(=O)O)C(=O)N[C@@H](CCC(=O)O)C(=O)N[C@@H](CC(N)=O)C(=O)N[C@H](C(=O)N[C@@H](CCC(=O)O)C(=O)N[C@H](C(=O)N[C@@H](CC(C)C)C(=O)N[C@@H](C)C(=O)N[C@@H](CCC(N)=O)C(=O)N[C@H](C(N)=O)C(C)C)[C@@H](C)CC)[C@@H](C)O)[C@@H](C)CC)[C@@H](C)O)C(C)C)[C@@H](C)O)C(C)C [SEQ ID NO: 41, Ac-IVTS αMeL D (D-Val) PT Aib αMeL LQIKLEQERAEKARQQAK((2-[2-(2-Amino-ethoxy)-ethoxy]-acetyl)2-γE-CO-(CH2)18-CO2H)ENTEILAQV-NH2] (Ac-IVTS[αMeL]D[dV]PT[Aib][αMeL]LQIKLEQERAEKARQQAK([AEEA-AEEA-γGlu-C20 diacid])ENTEILAQV-NH2) | 0/10 | no peptides displayed on MHC-II complexes | substantial improvements in immunogenicity over a compound comprising SEQ ID NO:54 | 0% | 3.91 mL/h/kg | 48.4 h | 3.82 mL/h/kg | 45.7 h | 43.8 h | 5.04 mL/h/kg | 39.3 h | 4.47 mL/h/kg | 24 h | 48.1 µM·h | 550 nM | 52.1 µM·h | 1190 nM | 50.1 µM·h and 60.6 µM·h and 45.5 µM·h | 1350 nM and 1620 nM and 586 nM | 3.23 mL/h/kg and 4.31 mL/h/kg | Tmax ([2]; male, Sprague Dawley, rat, plasma, sc, 196 nmol/kg, single subcutaneous dose 196 nmol/kg, individual animal, read-out: Tmax): 24 h; T1/2 [2, 16]: 49.8 h and 39.0 h; AUC0-inf [2, 17]: 43.1 µM·h and 56.2 µM·h and 45 µM·h; CL/F [2, 17]: 3.73 mL/h/kg and 4.63 mL/h/kg; Cmax [2, 17]: 467 nM and 645 nM and 539 nM; T1/2 [2, 17]: 36.5 h and 37.7 h
CC[C@H](C)[C@H](NC)C(=O)N[C@H](C(=O)N[C@H](C(=O)N[C@@H](CO)C(=O)N[C@@H](CC(C)C)C(=O)N[C@@H](CC(=O)O)C(=O)N[C@H](C(=O)N1CCC[C@H]1C(=O)N[C@H](C(=O)NCC(=O)N[C@@](C)(CC(C)C)C(=O)N[C@@H](CC(C)C)C(=O)N[C@@H](CCC(N)=O)C(=O)N[C@@H](CCCCN)C(=O)N[C@@H](CC(C)C)C(=O)N[C@H](C(=O)N[C@@H](CCC(=O)O)C(=O)N[C@@H](CCC(N)=O)C(=O)N[C@@H](CCC(=O)O)C(=O)N[C@@H](CCCCN)C(=O)N[C@@H](CCC(N)=O)C(=O)N[C@@H](CCC(=O)O)C(=O)N[C@@H](CCCCN)C(=O)N[C@@H](CCC(=O)O)C(=O)N[C@@H](CCCCN)C(=O)N[C@@H](CCC(N)=O)C(=O)N[C@@H](CCC(N)=O)C(=O)N[C@@H](C)C(=O)N[C@@H](CCCCNC(=O)COCCOCCNC(=O)COCCOCCNC(=O)CC[C@H](NC(=O)CCCCCCCCCCCCCCCCCCC(=O)O)C(=O)O)C(=O)N[C@@H](CCC(=O)O)C(=O)N[C@@H](CC(N)=O)C(=O)N[C@H](C(=O)N[C@@H](CCC(=O)O)C(=O)N[C@H](C(=O)N[C@@H](CC(C)C)C(=O)N[C@@H](C)C(=O)N[C@@H](CCC(N)=O)C(=O)N[C@H](C(N)=O)C(C)C)[C@@H](C)CC)[C@@H](C)O)[C@@H](C)CC)[C@@H](C)CC)C(C)C)[C@@H](C)O)C(C)C [SEQ ID NO: 49, (NMeI) VTSLDVPIG αMeL LQKLIEQEKQEKEKQQAK((2-[2-(2-Amino-ethoxy)-ethoxy]-acetyl)2-γE-CO-(CH2)18-CO2H)ENTEILAQV-NH2] (H-[NMeI]VTSLDVPIG[αMeL]LQKLIEQEKQEKEKQQAK([AEEA-AEEA-γGlu-C20 diacid])ENTEILAQV-NH2) | 6/26 | at least one peptide cluster on MHC-II complexes in a subset of donors | substantial improvements in immunogenicity over a compound comprising SEQ ID NO:54 | 23% | 4.72 mL/h/kg | 17.8 h | 4.15 mL/h/kg | 20.4 h | 19.1 h | 11.5 mL/h/kg | 18.4 h | 10.6 mL/h/kg | 18 h | 18.9 µM·h | 394 nM | 47.7 µM·h | 2840 nM | 41.5 µM·h and 53.1 µM·h and 48.4 µM·h | 2790 nM and 2610 nM and 3110 nM | 3.69 mL/h/kg and 4.05 mL/h/kg | T1/2 [2, 16]: 21.7 h and 21.6 h; AUC0-inf [2, 17]: 17.1 µM·h and 22.4 µM·h and 17.3 µM·h; CL/F [2, 17]: 8.76 mL/h/kg and 11.4 mL/h/kg; Cmax [2, 17]: 340 nM and 474 nM and 367 nM; T1/2 [2, 17]: 16.0 h and 20.2 h; Tmax [2, 17]: 24 h and 6 h
